Test results from ChEMBL document CHEMBL5291721, “A preclinical secondary pharmacology resource illuminates target-adverse drug reaction associations of marketed drugs” (Nat Commun, 2023).

Key:
[1] = target: T1, Prostaglandin G/H synthase 1 (Rattus norvegicus, UniProt Q63921); assay type: functional
T1 sequence (Q63921 whole entry): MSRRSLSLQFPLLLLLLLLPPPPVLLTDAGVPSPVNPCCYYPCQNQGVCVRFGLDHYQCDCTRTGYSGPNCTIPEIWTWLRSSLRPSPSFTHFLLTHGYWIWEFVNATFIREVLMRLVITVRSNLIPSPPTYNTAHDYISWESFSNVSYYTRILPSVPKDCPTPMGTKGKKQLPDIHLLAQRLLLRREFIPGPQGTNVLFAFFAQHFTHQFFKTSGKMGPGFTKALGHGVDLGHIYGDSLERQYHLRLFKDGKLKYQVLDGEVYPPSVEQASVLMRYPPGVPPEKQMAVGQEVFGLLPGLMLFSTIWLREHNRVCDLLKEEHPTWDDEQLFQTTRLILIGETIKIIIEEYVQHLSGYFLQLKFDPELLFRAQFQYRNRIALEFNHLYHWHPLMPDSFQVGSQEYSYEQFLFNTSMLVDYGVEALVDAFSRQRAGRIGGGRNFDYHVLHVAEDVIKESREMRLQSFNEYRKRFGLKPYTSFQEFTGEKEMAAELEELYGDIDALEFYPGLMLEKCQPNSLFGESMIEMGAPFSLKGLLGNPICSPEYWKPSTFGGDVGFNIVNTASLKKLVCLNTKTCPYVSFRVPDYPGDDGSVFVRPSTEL

[2] = target: Motilin receptor (Homo sapiens, UniProt O43193)
[3] = target: Growth hormone secretagogue receptor type 1 (Homo sapiens, UniProt Q92847)
[4] = target: T2, Type-1 angiotensin II receptor (Homo sapiens, UniProt P30556)
T2 sequence (P30556 whole entry): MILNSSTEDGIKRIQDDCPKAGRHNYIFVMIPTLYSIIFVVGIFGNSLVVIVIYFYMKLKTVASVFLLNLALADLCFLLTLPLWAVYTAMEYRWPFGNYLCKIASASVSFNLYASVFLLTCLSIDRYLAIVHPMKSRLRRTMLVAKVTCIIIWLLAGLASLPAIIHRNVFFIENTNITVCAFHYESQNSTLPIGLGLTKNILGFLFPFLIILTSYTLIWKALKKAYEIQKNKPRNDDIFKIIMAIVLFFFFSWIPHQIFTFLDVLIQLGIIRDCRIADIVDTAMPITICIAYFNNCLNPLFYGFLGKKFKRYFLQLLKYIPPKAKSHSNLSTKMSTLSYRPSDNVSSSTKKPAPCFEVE

[5] = target: T3, Equilibrative nucleoside transporter 1 (Homo sapiens, UniProt Q99808)
T3 sequence (Q99808 whole entry): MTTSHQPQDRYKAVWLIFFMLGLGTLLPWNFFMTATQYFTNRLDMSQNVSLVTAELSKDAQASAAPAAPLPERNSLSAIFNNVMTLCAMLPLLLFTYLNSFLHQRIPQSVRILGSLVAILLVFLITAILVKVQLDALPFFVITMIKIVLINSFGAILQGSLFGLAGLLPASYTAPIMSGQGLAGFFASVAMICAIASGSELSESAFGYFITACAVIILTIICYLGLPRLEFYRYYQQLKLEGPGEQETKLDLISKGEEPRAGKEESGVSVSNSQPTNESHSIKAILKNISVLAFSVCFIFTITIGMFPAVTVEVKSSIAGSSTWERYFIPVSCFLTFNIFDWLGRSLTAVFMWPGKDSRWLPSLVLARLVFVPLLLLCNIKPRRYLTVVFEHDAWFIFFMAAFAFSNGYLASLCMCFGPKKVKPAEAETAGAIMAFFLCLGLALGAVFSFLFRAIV

[6] = target: T4, Adenosine receptor A3 (Homo sapiens, UniProt P0DMS8)
T4 sequence (P0DMS8 whole entry): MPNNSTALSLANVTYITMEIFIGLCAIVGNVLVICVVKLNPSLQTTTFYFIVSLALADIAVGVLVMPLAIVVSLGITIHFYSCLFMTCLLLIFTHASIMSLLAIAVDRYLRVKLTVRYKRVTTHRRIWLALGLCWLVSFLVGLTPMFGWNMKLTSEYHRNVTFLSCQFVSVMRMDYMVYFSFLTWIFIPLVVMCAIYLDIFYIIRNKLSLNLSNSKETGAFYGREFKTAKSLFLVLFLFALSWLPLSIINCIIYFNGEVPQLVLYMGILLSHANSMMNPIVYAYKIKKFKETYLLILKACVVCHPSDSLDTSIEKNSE

[7] = target: Bile salt export pump (Homo sapiens, UniProt O95342); assay type: functional
[8] = target: 5-hydroxytryptamine receptor 2B (Homo sapiens, UniProt P41595); assay type: functional, cell-based
[9] = target: T5, 5-hydroxytryptamine receptor 3A (Homo sapiens, UniProt P46098); assay type: functional
T5 sequence (P46098 whole entry): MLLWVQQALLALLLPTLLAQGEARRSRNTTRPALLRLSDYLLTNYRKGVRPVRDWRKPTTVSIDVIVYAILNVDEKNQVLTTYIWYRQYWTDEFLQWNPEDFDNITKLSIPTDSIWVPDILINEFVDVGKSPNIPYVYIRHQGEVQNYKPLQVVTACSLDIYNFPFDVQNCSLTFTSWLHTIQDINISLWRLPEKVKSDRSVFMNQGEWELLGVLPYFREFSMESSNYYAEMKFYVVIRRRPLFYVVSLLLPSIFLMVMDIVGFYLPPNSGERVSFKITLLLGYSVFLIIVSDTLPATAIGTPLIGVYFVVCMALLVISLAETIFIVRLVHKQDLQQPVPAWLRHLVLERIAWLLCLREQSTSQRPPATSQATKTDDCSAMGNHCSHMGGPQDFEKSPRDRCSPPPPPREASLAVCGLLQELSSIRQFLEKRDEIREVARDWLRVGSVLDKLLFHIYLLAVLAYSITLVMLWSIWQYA

[10] = target: Delta-type opioid receptor (Homo sapiens, UniProt P41143)
[11] = target: D(1A) dopamine receptor (Homo sapiens, UniProt P21728); assay type: functional, cell-based
[12] = target: cGMP-inhibited 3',5'-cyclic phosphodiesterase 3A (Homo sapiens, UniProt Q14432); assay type: functional
[13] = target: Gamma-aminobutyric acid receptor subunit alpha-1 (Rattus norvegicus, UniProt P62813); assay type: functional
[14] = target: D(3) dopamine receptor (Homo sapiens, UniProt P35462)
Further: assay procedure not described here.

Sequence of Growth hormone secretagogue receptor type 1 (Q92847 whole entry): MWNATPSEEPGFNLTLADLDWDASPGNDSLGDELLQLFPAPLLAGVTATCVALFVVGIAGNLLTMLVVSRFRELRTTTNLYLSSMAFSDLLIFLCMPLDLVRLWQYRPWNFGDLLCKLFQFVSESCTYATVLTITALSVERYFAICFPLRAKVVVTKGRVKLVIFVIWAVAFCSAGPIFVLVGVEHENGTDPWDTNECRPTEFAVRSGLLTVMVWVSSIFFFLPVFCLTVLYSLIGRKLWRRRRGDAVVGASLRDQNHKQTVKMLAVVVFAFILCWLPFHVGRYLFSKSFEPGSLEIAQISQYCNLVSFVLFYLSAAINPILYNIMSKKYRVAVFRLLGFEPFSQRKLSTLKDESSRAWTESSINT
Sequence of cGMP-inhibited 3',5'-cyclic phosphodiesterase 3A (Q14432 whole entry): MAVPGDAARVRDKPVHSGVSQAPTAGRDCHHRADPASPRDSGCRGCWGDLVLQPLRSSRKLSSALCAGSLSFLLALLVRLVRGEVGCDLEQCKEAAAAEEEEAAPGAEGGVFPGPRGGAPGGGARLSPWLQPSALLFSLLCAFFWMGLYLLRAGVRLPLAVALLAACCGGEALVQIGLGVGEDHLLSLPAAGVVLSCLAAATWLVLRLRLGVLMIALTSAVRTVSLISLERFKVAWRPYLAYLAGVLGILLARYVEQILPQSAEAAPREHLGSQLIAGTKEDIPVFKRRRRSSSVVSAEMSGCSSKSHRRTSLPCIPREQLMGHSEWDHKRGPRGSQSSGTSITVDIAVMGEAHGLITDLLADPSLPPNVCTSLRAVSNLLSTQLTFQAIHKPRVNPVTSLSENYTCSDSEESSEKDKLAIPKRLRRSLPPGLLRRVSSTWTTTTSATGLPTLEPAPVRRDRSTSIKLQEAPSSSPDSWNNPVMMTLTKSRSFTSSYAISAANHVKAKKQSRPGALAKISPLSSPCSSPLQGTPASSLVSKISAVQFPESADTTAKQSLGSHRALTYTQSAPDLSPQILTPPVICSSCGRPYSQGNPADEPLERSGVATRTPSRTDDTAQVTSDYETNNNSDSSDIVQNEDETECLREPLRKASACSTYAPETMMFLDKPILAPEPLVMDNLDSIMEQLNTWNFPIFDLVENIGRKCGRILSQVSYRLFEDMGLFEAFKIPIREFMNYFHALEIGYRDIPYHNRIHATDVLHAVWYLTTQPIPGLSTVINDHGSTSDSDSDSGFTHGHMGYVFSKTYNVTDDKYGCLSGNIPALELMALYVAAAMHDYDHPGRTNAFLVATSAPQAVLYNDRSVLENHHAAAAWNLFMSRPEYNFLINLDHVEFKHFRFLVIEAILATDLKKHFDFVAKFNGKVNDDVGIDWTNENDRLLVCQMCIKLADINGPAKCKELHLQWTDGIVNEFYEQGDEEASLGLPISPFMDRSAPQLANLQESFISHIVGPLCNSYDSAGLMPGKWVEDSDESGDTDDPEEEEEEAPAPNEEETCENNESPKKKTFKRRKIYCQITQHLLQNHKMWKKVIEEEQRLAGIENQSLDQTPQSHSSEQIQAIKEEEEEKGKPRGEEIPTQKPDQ
Sequence of D(1A) dopamine receptor (P21728 whole entry): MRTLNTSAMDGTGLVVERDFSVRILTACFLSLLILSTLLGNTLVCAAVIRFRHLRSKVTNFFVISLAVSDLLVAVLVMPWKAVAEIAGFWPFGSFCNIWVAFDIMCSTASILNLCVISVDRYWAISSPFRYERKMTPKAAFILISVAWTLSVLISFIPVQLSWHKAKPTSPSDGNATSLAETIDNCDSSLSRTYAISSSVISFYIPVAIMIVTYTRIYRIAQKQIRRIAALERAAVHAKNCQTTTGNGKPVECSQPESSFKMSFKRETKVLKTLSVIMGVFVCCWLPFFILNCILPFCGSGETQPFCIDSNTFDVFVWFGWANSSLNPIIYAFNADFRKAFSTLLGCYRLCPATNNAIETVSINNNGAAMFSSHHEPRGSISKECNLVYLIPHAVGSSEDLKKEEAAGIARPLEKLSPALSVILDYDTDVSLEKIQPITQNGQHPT
Sequence of Motilin receptor (O43193 whole entry): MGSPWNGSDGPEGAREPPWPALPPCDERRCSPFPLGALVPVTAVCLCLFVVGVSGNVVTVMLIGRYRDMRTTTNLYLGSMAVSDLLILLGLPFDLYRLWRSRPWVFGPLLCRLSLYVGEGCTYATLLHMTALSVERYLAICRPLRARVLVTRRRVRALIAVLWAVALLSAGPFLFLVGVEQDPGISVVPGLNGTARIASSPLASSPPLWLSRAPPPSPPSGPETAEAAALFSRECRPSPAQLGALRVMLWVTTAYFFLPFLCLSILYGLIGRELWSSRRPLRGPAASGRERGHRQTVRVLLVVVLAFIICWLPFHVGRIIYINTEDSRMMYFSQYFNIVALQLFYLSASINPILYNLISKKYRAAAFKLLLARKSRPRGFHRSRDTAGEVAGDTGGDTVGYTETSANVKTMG
Sequence of Bile salt export pump (O95342 whole entry): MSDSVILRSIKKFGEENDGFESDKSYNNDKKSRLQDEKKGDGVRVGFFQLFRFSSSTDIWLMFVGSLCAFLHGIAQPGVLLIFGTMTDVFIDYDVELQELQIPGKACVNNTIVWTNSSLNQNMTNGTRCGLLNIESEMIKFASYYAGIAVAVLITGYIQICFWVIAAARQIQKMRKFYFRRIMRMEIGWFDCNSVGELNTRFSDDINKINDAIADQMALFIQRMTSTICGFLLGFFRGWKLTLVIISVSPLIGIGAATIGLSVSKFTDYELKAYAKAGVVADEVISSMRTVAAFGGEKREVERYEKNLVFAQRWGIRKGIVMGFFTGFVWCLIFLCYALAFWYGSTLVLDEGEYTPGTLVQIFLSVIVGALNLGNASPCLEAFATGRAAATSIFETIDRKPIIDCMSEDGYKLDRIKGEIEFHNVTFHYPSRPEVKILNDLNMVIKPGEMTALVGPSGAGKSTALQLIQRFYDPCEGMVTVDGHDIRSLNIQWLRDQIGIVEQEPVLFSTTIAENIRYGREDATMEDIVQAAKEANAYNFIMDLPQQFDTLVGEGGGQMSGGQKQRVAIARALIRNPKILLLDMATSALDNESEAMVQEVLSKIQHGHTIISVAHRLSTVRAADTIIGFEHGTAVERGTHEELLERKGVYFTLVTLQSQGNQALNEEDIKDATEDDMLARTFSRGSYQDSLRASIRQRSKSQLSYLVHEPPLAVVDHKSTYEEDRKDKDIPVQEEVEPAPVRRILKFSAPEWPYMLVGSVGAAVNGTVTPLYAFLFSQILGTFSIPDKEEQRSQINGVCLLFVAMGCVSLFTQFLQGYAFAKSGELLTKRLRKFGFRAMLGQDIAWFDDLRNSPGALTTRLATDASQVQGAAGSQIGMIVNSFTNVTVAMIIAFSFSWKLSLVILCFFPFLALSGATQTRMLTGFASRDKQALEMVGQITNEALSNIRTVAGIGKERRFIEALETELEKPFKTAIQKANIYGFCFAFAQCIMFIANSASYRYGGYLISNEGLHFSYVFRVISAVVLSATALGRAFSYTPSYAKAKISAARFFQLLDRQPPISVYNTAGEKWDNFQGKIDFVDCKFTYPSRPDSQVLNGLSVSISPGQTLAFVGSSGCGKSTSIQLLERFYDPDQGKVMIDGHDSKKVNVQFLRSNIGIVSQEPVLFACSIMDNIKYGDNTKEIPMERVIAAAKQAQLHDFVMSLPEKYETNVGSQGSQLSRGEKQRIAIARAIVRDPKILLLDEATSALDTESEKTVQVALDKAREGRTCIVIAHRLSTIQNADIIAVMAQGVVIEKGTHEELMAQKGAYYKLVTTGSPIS
Sequence of Delta-type opioid receptor (P41143 whole entry): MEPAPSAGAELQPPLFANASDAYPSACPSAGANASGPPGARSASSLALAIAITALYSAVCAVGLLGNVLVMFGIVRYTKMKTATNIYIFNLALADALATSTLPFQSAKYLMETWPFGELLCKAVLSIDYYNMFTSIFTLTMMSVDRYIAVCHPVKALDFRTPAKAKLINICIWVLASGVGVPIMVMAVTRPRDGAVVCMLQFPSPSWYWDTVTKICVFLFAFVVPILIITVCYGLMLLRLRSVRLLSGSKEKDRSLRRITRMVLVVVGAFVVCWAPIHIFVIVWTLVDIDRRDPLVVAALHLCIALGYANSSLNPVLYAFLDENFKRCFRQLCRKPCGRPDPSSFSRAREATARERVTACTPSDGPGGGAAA
Sequence of D(3) dopamine receptor (P35462 whole entry): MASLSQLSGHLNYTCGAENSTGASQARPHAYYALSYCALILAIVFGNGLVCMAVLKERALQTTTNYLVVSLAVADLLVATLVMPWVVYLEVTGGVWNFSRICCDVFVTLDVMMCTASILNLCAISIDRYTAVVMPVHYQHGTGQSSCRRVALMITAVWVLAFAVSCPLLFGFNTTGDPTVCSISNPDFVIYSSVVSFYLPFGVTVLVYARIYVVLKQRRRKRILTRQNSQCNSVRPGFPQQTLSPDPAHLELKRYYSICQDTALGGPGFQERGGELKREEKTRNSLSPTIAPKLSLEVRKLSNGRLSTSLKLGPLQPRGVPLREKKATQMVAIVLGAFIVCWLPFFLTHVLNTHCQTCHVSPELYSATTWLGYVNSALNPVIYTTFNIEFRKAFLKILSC
Sequence of 5-hydroxytryptamine receptor 2B (P41595 whole entry): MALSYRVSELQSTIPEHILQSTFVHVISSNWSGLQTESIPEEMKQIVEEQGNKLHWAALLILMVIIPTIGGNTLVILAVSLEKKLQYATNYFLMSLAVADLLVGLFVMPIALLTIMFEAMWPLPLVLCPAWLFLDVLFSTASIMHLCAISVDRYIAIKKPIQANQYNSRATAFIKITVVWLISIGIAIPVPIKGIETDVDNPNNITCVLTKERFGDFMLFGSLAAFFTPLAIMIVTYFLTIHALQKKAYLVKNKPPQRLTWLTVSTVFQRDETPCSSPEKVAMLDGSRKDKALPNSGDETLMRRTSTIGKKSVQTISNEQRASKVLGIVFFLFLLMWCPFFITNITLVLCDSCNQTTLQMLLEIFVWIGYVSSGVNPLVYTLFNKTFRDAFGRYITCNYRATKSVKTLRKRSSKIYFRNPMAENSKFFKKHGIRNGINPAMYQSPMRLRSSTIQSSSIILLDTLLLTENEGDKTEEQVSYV

Compound | AC50 [1] [µM] | AC50 [2] [µM] | AC50 [3] [µM] | AC50 [4] [µM] | AC50 [5] [µM] | AC50 [6] [µM] | AC50 [7] [µM] | AC50 [8] [µM] | AC50 [9] [µM] | AC50 [10] [µM] | AC50 [11] [µM] | AC50 [12] [µM] | AC50 [13] [µM] | AC50 [14] [µM]
O=c1[nH]cc(F)c(=O)[nH]1 [FLUOROURACIL] | > 30 | > 30 | > 30 | > 30 | > 30 | > 30 | – | – | – | – | – | – | – | –
Cc1ccc(C(C)C)c(O)c1 [THYMOL] | 120 | – | – | – | – | – | > 300 | – | – | – | – | – | – | –
OC[C@H]1NC[C@H](O)[C@@H](O)[C@H]1O | – | – | – | – | – | – | > 300 | – | – | – | – | – | – | –
CN1CCN(C(c2ccccc2)c2ccc(Cl)cc2)CC1 (configuration not stated) [CHLORCYCLIZINE] | – | – | – | – | – | – | > 300 | – | – | – | – | – | – | –
NCCCNCCSP(=O)(O)O [AMIFOSTINE] | > 30 | > 30 | > 30 | > 30 | – | > 30 | > 300 | > 30 | > 30 | > 30 | > 30 | > 30 | > 30 | > 30
O=P1(N(CCCl)CCCl)NCCCO1 (configuration not stated) [CYCLOPHOSPHAMIDE ANHYDROUS] | – | – | – | – | – | – | > 300 | – | – | – | – | – | – | –
O=NN(CCCl)C(=O)NC1CCCCC1 [LOMUSTINE] | – | – | – | – | – | – | > 300 | – | – | – | – | – | – | –
CC#CC(=O)N1CCC[C@H]1c1nc(-c2ccc(C(=O)Nc3ccccn3)cc2)c2c(N)nccn12 [ACALABRUTINIB] | > 30 | – | – | – | – | – | – | – | – | – | – | – | – | –
CC[N+](CC)(CCNC(=O)C(=O)NCC[N+](CC)(CC)Cc1ccccc1Cl)Cc1ccccc1Cl [AMBENONIUM] | > 30 | > 30 | > 30 | > 30 | – | > 30 | > 300 | > 30 | > 30 | > 30 | > 30 | > 30 | > 30 | > 30
CC(=O)NC[C@H]1CN(c2ccc(N3CCOCC3)c(F)c2)C(=O)O1 [LINEZOLID] | > 30 | – | > 30 | > 30 | > 30 | > 30 | > 300 | – | > 30 | > 30 | – | > 30 | > 30 | > 30
CN(C)CCN(Cc1ccccc1)c1ccccn1 [TRIPELENNAMINE] | > 10 | > 10 | > 10 | > 10 | > 30 | > 10 | – | > 10 | > 30 | > 30 | > 10 | > 10 | > 10 | > 10
CC(=O)Oc1ccccc1C(=O)O [ASPIRIN] | – | > 10 | > 30 | > 30 | > 30 | > 30 | > 300 | > 10 | > 30 | > 30 | > 10 | > 30 | > 10 | > 30
O=C(O)[C@@H](S)[C@@H](S)C(=O)O | – | – | – | – | – | – | 50 | – | – | – | – | – | – | –
